This note sets out measurements from PubChem BioAssay AID256 (DTP/NCI, 2004).

Where “and” joins values, the source holds several entries; their conditions need not be identical. Equal values may be shown once. Inconclusive results and toxic doses are left out. Non-standard residues stand in square brackets, D forms with d. Residues, ends and D or L forms follow the SMILES beside them. ξ: configuration not given here. *: point of attachment. Cbz = O=C(OCc1ccccc1)*; ξP = O=C(O)C1CCCN1

The test system of the assay is CD2F1 mice, L1210 leukemia ip, survival T/C. As to the kind of experiment: NCI In Vivo Anticancer Drug Screen. Data for tumor model L1210 Leukemia (intraperitoneal) in CD2F1 (CDF1) mice. Conditions: higher = longer survival. In outline: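 Transplantable tumor in mice; compound-treated vs vehicle-treated groups. Read-out = treated/control ratio of the measured endpoint.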

The mark [1] stands for this setting: endpoint: mean survival time, dose: 100.0 mg/kg/injection, schedule: Q04DX003 (ip), vehicle: saline with Tween-80.
[2] abbreviates: endpoint: mean survival time, dose: 200.0 mg/kg/injection, schedule: Q04DX003 (ip), vehicle: saline with Tween-80.
[3] abbreviates: endpoint: mean survival time, dose: 400.0 mg/kg/injection, schedule: Q04DX003 (ip), vehicle: saline with Tween-80.
Where [4] appears, read: endpoint: mean survival time, dose: 100.0 mg/kg/injection, schedule: Q04DX003 (ip), vehicle: saline.
Where [5] appears, read: endpoint: mean survival time, dose: 200.0 mg/kg/injection, schedule: Q04DX003 (ip), vehicle: saline.
The mark [6] stands for this setting: endpoint: mean survival time, dose: 400.0 mg/kg/injection, schedule: Q04DX003 (ip), vehicle: saline.
Where [7] appears, read: endpoint: mean survival time, dose: 25.0 mg/kg/injection, schedule: Q04DX003 (ip), vehicle: saline with Tween-80.
Where [8] appears, read: endpoint: mean survival time, dose: 100.0 mg/kg/injection, schedule: Q01DX009 (ip), vehicle: saline with Tween-80.
[9] abbreviates: endpoint: mean survival time, dose: 200.0 mg/kg/injection, schedule: Q01DX009 (ip), vehicle: saline with Tween-80.
Where [10] appears, read: endpoint: mean survival time, dose: 400.0 mg/kg/injection, schedule: Q01DX009 (ip), vehicle: saline with Tween-80.
Where [11] appears, read: endpoint: mean survival time, dose: 75.0 mg/kg/injection, schedule: Q01DX001 (ip), vehicle: saline.
Setting [12] is: endpoint: mean survival time, dose: 150.0 mg/kg/injection, schedule: Q01DX001 (ip), vehicle: saline.
Setting [13] is: endpoint: mean survival time, dose: 300.0 mg/kg/injection, schedule: Q01DX001 (ip), vehicle: saline.

With `CSc1ncnc2c1nnn2C1OC(COC(=O)c2ccccc2)C(OC(=O)c2ccccc2)C1OC(=O)c1ccccc1` (centres undefined), the T/C is, setting by setting: (endpoint: median survival time, dose: 12.5 mg/kg/injection, schedule: Q01DX005 (ip), vehicle: Klucel (hydroxypropylcellulose) (HPC)) 94 % of control; (endpoint: median survival time, dose: 25.0 mg/kg/injection, schedule: Q01DX005 (ip), vehicle: Klucel (hydroxypropylcellulose) (HPC)) 104 % of control; (endpoint: median survival time, dose: 50.0 mg/kg/injection, schedule: Q01DX005 (ip), vehicle: Klucel (hydroxypropylcellulose) (HPC)) 116 % of control and 123 % of control; (endpoint: median survival time, dose: 100.0 mg/kg/injection, schedule: Q01DX005 (ip), vehicle: Klucel (hydroxypropylcellulose) (HPC)) 116 % of control; (endpoint: median survival time, dose: 400.0 mg/kg/injection, schedule: Q01DX005 (ip), vehicle: Klucel (hydroxypropylcellulose) (HPC)) 164 % of control.
For the compound `CC(C#N)(Nc1ccccc1)c1ccccn1` (centres undefined), the T/C runs as follows: under setting [1], 101 % of control; under setting [2], 93 % of control; under setting [3], 89 % of control.
As to `O=C1OCc2ccccc21`, the T/C (endpoint: mean survival time, dose: 100.0 mg/kg/injection, schedule: Q04DX002 (ip), vehicle: saline with Tween-80) was 96 % of control; the T/C (endpoint: mean survival time, dose: 200.0 mg/kg/injection, schedule: Q04DX002 (ip), vehicle: saline with Tween-80) was 100 % of control; the T/C (endpoint: mean survival time, dose: 400.0 mg/kg/injection, schedule: Q04DX002 (ip), vehicle: saline with Tween-80) is 100 % of control.
`CCOC(=O)CCN(C)C`: the T/C was 97 % of control under setting [4], 100 % of control under setting [5] and 100 % of control under setting [6].
In the case of `CSc1nc2c(c(=O)[nH]1)CC(=O)N2`, the T/C reads like this: (endpoint: median survival time, dose: 50.0 mg/kg/injection, schedule: Q01DX005 (ip), vehicle: saline) 93 % of control; (endpoint: median survival time, dose: 100.0 mg/kg/injection, schedule: Q01DX005 (ip), vehicle: saline) 91 % of control; (endpoint: median survival time, dose: 200.0 mg/kg/injection, schedule: Q01DX005 (ip), vehicle: saline) 98 % of control.
As to `NNc1ccnc2[nH]ncc12`, the T/C was 106 % of control (endpoint: mean survival time, dose: 6.25 mg/kg/injection, schedule: Q01DX005 (ip), vehicle: saline with Tween-80); 103 % of control (endpoint: mean survival time, dose: 12.5 mg/kg/injection, schedule: Q01DX005 (ip), vehicle: saline with Tween-80); 101 % of control (endpoint: mean survival time, dose: 25.0 mg/kg/injection, schedule: Q01DX005 (ip), vehicle: saline with Tween-80).
For `CCCOC(=O)C1CCCCC1C(=O)OCCC` (centres undefined), the T/C is 98 % of control under setting [4], 98 % of control under setting [5] and 104 % of control under setting [6].
With `CCCOc1ccc(C(N)=S)c2ccccc12`, the T/C by setting is: (endpoint: mean survival time, dose: 100.0 mg/kg/injection, schedule: Q04DX002 (ip), vehicle: Klucel (hydroxypropylcellulose) (HPC)) 105 % of control; (endpoint: mean survival time, dose: 200.0 mg/kg/injection, schedule: Q04DX002 (ip), vehicle: Klucel (hydroxypropylcellulose) (HPC)) 102 % of control; (endpoint: mean survival time, dose: 400.0 mg/kg/injection, schedule: Q04DX002 (ip), vehicle: Klucel (hydroxypropylcellulose) (HPC)) 105 % of control.
`N#CSC/C(Br)=C/Br`: the T/C was 97 % of control (endpoint: mean survival time, dose: 6.25 mg/kg/injection, schedule: Q04DX003 (ip), vehicle: saline with Tween-80); 103 % of control (endpoint: mean survival time, dose: 12.5 mg/kg/injection, schedule: Q04DX003 (ip), vehicle: saline with Tween-80); 92 % of control under setting [7].
`CC12CCC3C(CC=C4CC([Se]C(=N)N)CCC43C)C1CCC2=O` (centres undefined): the T/C is 95 % of control (endpoint: mean survival time, dose: 75.0 mg/kg/injection, schedule: Q01DX001 (ip), vehicle: steriod suspending solution); 95 % of control (endpoint: mean survival time, dose: 150.0 mg/kg/injection, schedule: Q01DX001 (ip), vehicle: steriod suspending solution); 95 % of control (endpoint: mean survival time, dose: 300.0 mg/kg/injection, schedule: Q01DX001 (ip), vehicle: steriod suspending solution).
As to `S=c1[n-]c2ccccc2s1.S=c1[n-]c2ccccc2s1.[Cl][Pt+2][Cl]`, the T/C is, setting by setting: under setting [7], 95 % of control; (endpoint: mean survival time, dose: 50.0 mg/kg/injection, schedule: Q04DX003 (ip), vehicle: saline with Tween-80) 88 % of control; under setting [1], 93 % of control; under setting [2], 90 % of control.
On to `NC(=O)c1c2ccccc2nn1C1OC(CO)C(O)C1O` (centres undefined), for which the T/C was 96 % of control (endpoint: mean survival time, dose: 100.0 mg/kg/injection, schedule: Q01DX005 (ip), vehicle: saline) and 102 % of control (endpoint: mean survival time, dose: 200.0 mg/kg/injection, schedule: Q01DX005 (ip), vehicle: saline).
On to `CCC1CCCCN1C` (centres undefined), for which the T/C under setting [1] was 90 % of control.
Turning to `N#CCC(O)(/C=C/c1ccccc1)c1ccccc1` (centres undefined), the T/C runs as follows: under setting [8], 95 % of control; under setting [1], 97 % of control; under setting [9], 91 % of control; under setting [10], 89 % of control; under setting [3], 88 % of control.
For `CC(=O)C12CC3CC1C2C3`, the T/C runs as follows: under setting [11], 101 % of control; under setting [12], 98 % of control; under setting [13], 93 % of control.
On to `O=C1CCC2(Cc3ccccc3C2=O)O1` (centres undefined), for which the T/C is, setting by setting: under setting [11], 94 % of control; under setting [12], 96 % of control; under setting [13], 94 % of control.
For `Cc1cc2ncn(C(=O)Nc3ccccc3)c2cc1C`, the T/C under setting [8] is 105 % of control, the T/C under setting [9] is 94 % of control and the T/C under setting [10] was 96 % of control.
On to `O=C1C(=O)c2ccccc2C(O)=C1CCCc1ccc(OCc2ccccc2)cc1`, for which the T/C was 86 % of control under setting [4] and 88 % of control under setting [5].
Regarding `CC(=O)Nc1ccc(S(=O)(=O)OCCCl)cc1`, the T/C is, setting by setting: under setting [1], 96 % of control; under setting [2], 110 % of control; under setting [3], 102 % of control.
For `CC1(C)C=Cc2ccccc21`, the T/C (endpoint: mean survival time, dose: 50.0 mg/kg/injection, schedule: Q01DX009 (ip), vehicle: saline with Tween-80) is 113 % of control and the T/C under setting [8] is 113 % of control.
As to `OCCOc1cccc(OCCO)c1`, the T/C by setting is: under setting [8], 96 % of control; under setting [9], 96 % of control; under setting [10], 115 % of control.
Turning to `CCCCCCCCCCCCCCCCCC(=O)N1CC[N+](C)(C)CC1`, the T/C under setting [11] is 101 % of control, the T/C under setting [12] was 100 % of control and the T/C under setting [13] was 107 % of control.
As for `CN(CCC#N)C1=CCCC1`, the T/C by setting is: (endpoint: mean survival time, dose: 100.0 mg/kg/injection, schedule: Q01DX009 (ip), vehicle: saline) 102 % of control; (endpoint: mean survival time, dose: 200.0 mg/kg/injection, schedule: Q01DX009 (ip), vehicle: saline) 112 % of control; (endpoint: mean survival time, dose: 400.0 mg/kg/injection, schedule: Q01DX009 (ip), vehicle: saline) 105 % of control.
On to `O=C(O)/C=N/NS(=O)(=O)c1ccc2ccccc2c1`, for which the T/C by setting is: (endpoint: mean survival time, dose: 12.5 mg/kg/injection, schedule: Q04DX003 (ip), vehicle: other) 114 % of control; (endpoint: mean survival time, dose: 25.0 mg/kg/injection, schedule: Q04DX003 (ip), vehicle: other) 119 % of control; (endpoint: mean survival time, dose: 50.0 mg/kg/injection, schedule: Q04DX003 (ip), vehicle: other) 119 % of control; (endpoint: mean survival time, dose: 100.0 mg/kg/injection, schedule: Q04DX003 (ip), vehicle: other) 110 % of control; (endpoint: mean survival time, dose: 200.0 mg/kg/injection, schedule: Q04DX003 (ip), vehicle: other) 103 % of control.
Consider `N#CC(C#N)=Cc1cccc(CC(O)(C(F)(F)F)C(F)(F)F)n1`, for which the T/C is 105 % of control under setting [1] and 94 % of control under setting [2].
Turning to `O=C(CNC(=O)OCc1ccccc1)NCC(=O)N1CCCC1C(=O)O` (stereo not drawn) (Cbz-Gly-Gly-[ξP]-OH), the T/C is 98 % of control under setting [4], 96 % of control under setting [5] and 101 % of control under setting [6].
